Experimental data: patent US11000512B2, “Use of DDX3 inhibitors as antiproliferative agents” (AZIENDA OSPEDALIERA UNIVERSITARIA SENESE, priority 2016, dated 2021)
Blank lines part the entries; values can stand above or below the molecule they belong to.

Tests used:
[1] = Parallel Artificial Membrane Permeability Assay (PAMPA), GI; type: in vitro ADME; conditions: GI (intestinal) PAMPA, value in brackets
Procedure: Parallel Artificial Membrane Permeability Assay (PAMPA). Donor solution (0.5 mM) was prepared by diluting 1 mM dimethylsulfoxide (DMSO) compound stock solution using phosphate buffer (pH 7.4, 0.025 M). Filters were coated with 5 μL of a 1% (w/v) dodecane solution of phosphatidylcholine prepared from CHCl3 solution 10% w/v, for intestinal permeability. Donor solution (150 μL) was added to each well of the filter plate. To each well of the acceptor plate were added 300 μL of solution (50% DMSO in phosphate buffer). All compounds were tested in three different plates on different days. The sandwich was incubated for 5 h at room temperature under gentle shaking. After the incubation time, the plates were separated, and samples were taken from both receiver and donor sides and analyzed using LC with UV detection at 280 nm.
LC analysis were performed with a Varian Prostar HPLC system (Varian Analytical Instruments, USA) equipped with a binary pump with a manual injection valve and model Prostar 325 UV-VIS Detector. Chromatographic separations were conducted using a Polaris C18-A column (150-4.6 mm, 5 μm particle size) at a flow rate of 0.8 mL min^−1 with a mobile phase composed of 60% ACN/40% H2O.
Permeability (Papp) for PAMPA was calculated according to the following equation, obtained from Wohnsland and Faller and Sugano et al. equation with some modification in order to obtain permeability values in cm s^−1,
where VA is the volume in the acceptor well, VD is the volume in the donor well (cm^3), A is the “effective area” of the membrane (cm^2), t is the incubation time (s) and r the ratio between drug concentration in the acceptor and equilibrium concentration of the drug in the total volume (VD+VA). Drug concentration is estimated by using the peak area integration.
Membrane retentions (%) were calculated according to the following equation: […]
where r is the ratio between drug concentration in the acceptor and equilibrium concentration, D, A, and Eq represented drug concentration in the donor, acceptor and equilibrium solution, respectively.

[2] = Microsomal Stability Assay (HLM); type: in vitro ADME; conditions: human liver microsomes, 37° C., 60 min, NADPH-generating system; percentage of not metabolized compound
Excerpt: For the quantification was used an LC-MS system consisted of a Varian apparatus (Varian Inc) including a vacuum solvent degassing unit, two pumps (212-LC), a Triple Quadrupole MSD (Mod. 320-LC) mass spectrometer with ES interface and Varian MS Workstation System Control Vers. 6.9 software. Chromatographic separation was obtained using a Pursuit C18 column (50×2.0 mm) (Varian) with 3 μm particle size and gradient elution: eluent A being ACN and eluent B consisting of water. […] The flow rate was 0.2 mL min^−1 and injection volume was 5 μL. The instrument operated in positive mode and parameters were: detector 1850 V, drying gas pressure 25.0 psi, desolvation temperature 300.0° C., nebulizing gas 40.0 psi, needle 5000 V and shield 600 V. Nitrogen was used as nebulizer gas and drying gas. Collision induced dissociation was performed using Argon as the collision gas at a pressure of 1.8 mTorr in the collision cell. Microsomal Stability Assay. […] The reaction was stopped by cooling on ice and adding 1.0 mL of acetonitrile. The reaction mixtures were then centrifuged, and the parent drug and metabolites were subsequently determined by LC-UV-MS. Chromatographic analysis was performed with an Agilent 1100 LC/MSD VL system (G1946C) (Agilent Technologies, Palo Alto, Calif.) constituted by a vacuum solvent degassing unit, a binary high-pressure gradient pump, an 1100 series UV detector, and an 1100 MSD model VL benchtop mass spectrometer.
Chromatographic separation was obtained using a Varian Polaris C18-A column (150-4.6 mm, 5 μm particle size) and gradient elution: eluent A being ACN and eluent B consisting of water. […] The flow rate was 0.8 mL min^−1 and injection volume was 20 μL.
The Agilent 1100 series mass spectra detection (MSD) single-quadrupole instrument was equipped with the orthogonal spray API-ES (Agilent Technologies, Palo Alto, Calif.). Nitrogen was used as nebulizing and drying gas. The pressure of the nebulizing gas, the flow of the drying gas, the capillary voltage, the fragmentor voltage, and the vaporization temperature were set at 40 psi, 9 L/min, 3000 V, 70 V, and 350° C., respectively. UV detection was monitored at 280 nm. The LC-ESI-MS determination was performed by operating the MSD in the positive ion mode. Spectra were acquired over the scan range m/z 100-1500 using a step size of 0.1 u. The percentage of not metabolized compound was calculated by comparison with reference solutions.

[3] = system: Human Neuroblastoma cell line (SH-SY5Y); test: Cytotoxicity test / growth inhibition, SH-SY5Y; type: cell-based; conditions: 48 hours, cell counting
Procedure: Cells were purchased from American Type Culture Collection (ATCC, Manassas, Va., USA). The LNCaP (ATCC® CRL-1740™), A549 (ATCC® CCL-185™), MDA-MB-231 (ATCC® CRM-HTB-26™), 22Rv1 (ATCC® CRL-2505™), HCT-116 (ATCC® CCL-247™) and PC3 (ATCC® CRL-1435™) cells were maintained in Roswell Park Memorial Institute 1640 medium (RPMI; Euroclone, ECB9006L) supplemented with 10% fetal bovine serum (Euroclone; ECS0180L), 2 mM L-glutamine, 100 units/mL penicillin and […] streptomycin at 37° C. in an atmosphere of 5% CO2/air. […]
(§1) Cell lines were seeded at appropriate densities in 2 mL growth medium in 6-wells culture plates 24 hours before the treatment with the inhibitor compounds. […] Cells were incubated 48 hours with drugs and, then, cell viability was evaluated.
(§2) Cells were detached from each well of the 6-wells plates with 300 μL of Trypsin and suspended in culture medium to a final volume of 1 mL. Cell viability was then assessed through cell counting. Cells were diluted in 1:50 ratio of an isotonic buffered diluent, Isoton (Backman Coulter), following the manufacturer's instructions, and counted using an automated cell counter (Z2 series Coulter Counter, Beckman Coulter). […]

[4] = system: Human breast adenocarcinoma cell line (MDA-MB-231); test: Cytotoxicity test / growth inhibition, MDA-MB-231; type: cell-based; conditions: MDA-MB-231, 48 hours, cell counting
Procedure: (§3) Cells were purchased from American Type Culture Collection (ATCC, Manassas, Va., USA). The LNCaP (ATCC® CRL-1740™), A549 (ATCC® CCL-185™), MDA-MB-231 (ATCC® CRM-HTB-26™), 22Rv1 (ATCC® CRL-2505™), HCT-116 (ATCC® CCL-247™) and PC3 (ATCC® CRL-1435™) cells were maintained in Roswell Park Memorial Institute 1640 medium (RPMI; Euroclone, ECB9006L) supplemented with 10% fetal bovine serum (Euroclone; ECS0180L), 2 mM L-glutamine, 100 units/mL penicillin and […] streptomycin at 37° C. in an atmosphere of 5% CO2/air. DU145 (ATCC® HTB-81™), and DAOY (ATCC® HTB-186™) cells were maintained in Eagle's minimal essential medium (EMEM; Euro-clone, ECM0445L) supplemented with 10% fetal bovine serum (Euroclone; ECS0180L), 2 mM L-glutamine, 100 units/ml penicillin and […] streptomycin at 37° C. in an atmosphere of 5% CO2/air. SH-SY5Y (ATCC® CRL-2266™), DBRTG (ATCC® CRL-2020™), HeLa (ATCC® CCL-2™), HN6 cells (kindly provided by Dr Silvio Gutkind, UCSD Medical Center, Moores Cancer Center USA, Chen J. J et al, Oncotarget 2013, 4, 206-217)), U2OS (ATCC® HTB-96™), RD18 cells (kindly provided by Dr P. Boccuni Memorial Sloan-Kettering Cancer Center, New York, USA Vella S. et al. Clin Epigenetics. 2015 6; 7-82), cells were maintained in Dulbecco's modified Eagle's medium (DMEM; Euroclone, ECB7501L) supplemented with 10% fetal bovine serum (Euroclone; ECS0180L), 2 mM L-glutamine, 100 units/ml penicillin and 100 mg/mL streptomycin at 37° C. in an atmosphere of 5% CO2/air.
(§4) Cell lines were seeded at appropriate densities in 2 mL growth medium in 6-wells culture plates 24 hours before the treatment with the inhibitor compounds. After 24 h the culture medium was removed and fresh medium containing increasing concentrations of chemical compounds was added to cells. The fixed final concentrations were: 0.1 μM, 1 μM, 10 μM, 100 μM. DMSO was the vehicle used for dilution of the compounds and its final concentration on cells was less than 0.2%. Medium-only containing wells were included as controls. Cells were incubated 48 hours with drugs and, then, cell viability was evaluated.
(§5) Cells were detached from each well of the 6-wells plates with 300 μL of Trypsin and suspended in culture medium to a final volume of 1 mL. Cell viability was then assessed through cell counting. Cells were diluted in 1:50 ratio of an isotonic buffered diluent, Isoton (Backman Coulter), following the manufacturer's instructions, and counted using an automated cell counter (Z2 series Coulter Counter, Beckman Coulter). Each cell count was performed in three replicates. The values corresponding to the relative survival of cells in presence of each chemical compound at single concentrations were normalized to the untreated controls. Then, the half maximal inhibitory concentration (IC50) value, which represent the drug concentration that is required to induce a 50% growth inhibition in vitro, was calculated with GraphPad Prism 6.0 software using the best fitting sigmoid curve.

[5] = system: Human cervical carcinoma cell line (HeLa); test: Cytotoxicity test / growth inhibition, HeLa; type: cell-based; conditions: 48 hours, cell counting, mM
Procedure: as §3, with “2015 6; 7-82), cells were maintained in Dulbecco's modified Eagle's medium (DMEM; Euroclone, ECB7501L) supplemented with 10% fetal bovine serum (Euroclone; ECS0180L), 2 mM L-glutamine, 100 units/ml penicillin and 100 mg/mL streptomycin at 37° C. in an atmosphere of 5% CO2/air.” left out
as §1, §2

[6] = system: Human Glioblastoma cell line (U87); test: Cytotoxicity test / growth inhibition, U87; type: cell-based; conditions: U87, 48 hours, cell counting, mM
Procedure: as §4
as §2, with “Coulter). Each cell count was performed in three replicates. The values corresponding to the relative survival of cells in presence of each chemical compound at single concentrations were normalized to the untreated controls.” for “Coulter).”

[7] = system: HIV; conditions: viral load of PBMCs infected with HIV; cited from earlier work
[8] = system: Human Prostate cell line derived from brain metastasis (DU-145); test: Cytotoxicity test / growth inhibition, DU-145; type: cell-based; conditions: DU-145, 48 hours, cell counting
Procedure: as §3, §4
as §2, with “Coulter). Each cell count was performed in three replicates. The values corresponding to the relative survival of cells in presence of each chemical compound at single concentrations were normalized to the untreated controls.” for “Coulter).”

[9] = system: Human Prostate cancer cell line (PC3); test: Cytotoxicity test / growth inhibition, PC3; type: cell-based; conditions: PC3, 48 hours, cell counting
Procedure: as §3, with “2015 6; 7-82), cells were maintained in Dulbecco's modified Eagle's medium (DMEM; Euroclone, ECB7501L) supplemented with 10% fetal bovine serum (Euroclone; ECS0180L), 2 mM L-glutamine, 100 units/ml penicillin and 100 mg/mL streptomycin at 37° C. in an atmosphere of 5% CO2/air.” left out
as §1, §2

[10] = system: Human head and neck squamous carcinoma cell line (HN6); test: Cytotoxicity test / growth inhibition, HN6; type: cell-based; conditions: HN6, 48 hours, cell counting
Procedure: as §3, §4, §5

[11] = system: Human adenocarcinomic alveolar basal epithelial cell line (A549); test: Cytotoxicity test / growth inhibition, A549; type: cell-based; conditions: A549, 48 hours, cell counting
Procedure: as §3, §4, §5

[12] = system: Human colorectal carcinoma cell line (HCT116); test: Cytotoxicity test / growth inhibition, HCT116; type: cell-based; conditions: HCT-116, HCT116, 48 hours, cell counting
Procedure: as §3, with “2015 6; 7-82), cells were maintained in Dulbecco's modified Eagle's medium (DMEM; Euroclone, ECB7501L) supplemented with 10% fetal bovine serum (Euroclone; ECS0180L), 2 mM L-glutamine, 100 units/ml penicillin and 100 mg/mL streptomycin at 37° C. in an atmosphere of 5% CO2/air.” left out
as §1, §2

PAMPA GI (RM %) membrane retention [1]: 19.1%
Sability % [2]: 99%
Structure (SMILES): CCCCc1cn(-c2ccc(NC(=O)Nc3ccccc3C)cc2)nn1 [Compound 20a, 1-(4-(4-butyl-1H-1,2,3-triazol-1-yl)phenyl)-3-o-tolylurea]
IC50 [3]: 149 µM
IC50 [4]: 18.7 µM
IC50 [5]: 0.054 mM
IC50 [6]: 0.037 mM

Structure (SMILES): Cc1ccccc1NC(=O)Nc1cccc([N+](=O)[O-])c1 [EI01D]
EC50 [7]: 10 µM

Structure (SMILES): CC(C)CCc1cn(-c2ccc(NC(=O)Nc3cccc4cnccc34)cc2)nn1 [Compound 55f, 1-(4-(4-isopentyl-1H-1,2,3-triazol-1-yl)phenyl)-3-(isoquinolin-5-yl)urea]
IC50 [8]: 0.6 µM
IC50 [9]: 32.4 µM
IC50 [10]: 6.1 µM

Structure (SMILES): CCCCc1nnc(-c2ccc(NC(=O)Nc3ccccc3C(F)(F)F)cc2)o1 [Compound 112, 1-(4-(5-butyl-1,3,4-oxadiazol-2-yl)phenyl)-3-(2-(trifluoromethyl)phenyl)urea]
IC50 [4]: 33.6 µM
IC50 [11]: 57.1 µM
IC50 [12]: 38.2 µM
IC50 [10]: 75.7 µM
